Results reported in PubChem BioAssay (NCI).
Several values for one entry are separate records, joined by “and”; a condition that tells them apart may be missing. Equal values may be shown once.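 Following 48 hours of exposure in 96-well plates, responses at five concentrations were used to interpolate endpoints linearly. At the GI50, growth is halved. At the TGI there is no net growth.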

Columns and labels:
Experiment in all cases: NCI tumour cell line growth inhibition, 48 h
[1] = tested on: P388 leukemia
[2] = tested on: A498 renal
[3] = tested on: RPMI-8226 leukemia
[4] = tested on: MDA-MB-435
[5] = tested on: SN12C renal
[6] = tested on: ACHN renal
[7] = tested on: A549 NSCLC
[8] = tested on: DMS 114 small cell lung
[9] = tested on: SNB-75 CNS
[10] = tested on: SW-620 colon
[11] = tested on: HOP-18 NSCLC
[12] = tested on: SK-MEL-2 melanoma
[13] = tested on: HCT-116 colon
[14] = tested on: K-562 leukemia
[15] = tested on: HOP-92 NSCLC
[16] = tested on: DMS 273 small cell lung
[17] = tested on: 786-0 renal
[18] = tested on: BT-549 breast
[19] = tested on: UO-31 renal
[20] = tested on: SNB-19 CNS
[21] = tested on: UACC-257 melanoma
[22] = tested on: HT29 colon
[23] = tested on: NCI-H226 lung
[24] = tested on: T-47D breast
[25] = tested on: SF-268 CNS
[26] = tested on: MOLT-4 leukemia
[27] = tested on: SNB-78 CNS
[28] = tested on: HL-60(TB) leukemia
[29] = tested on: CAKI-1 renal
[30] = tested on: EKVX NSCLC
[31] = tested on: NCI-H23 lung
[32] = tested on: SK-MEL-5 melanoma
[33] = tested on: OVCAR-5 ovarian
[34] = tested on: DU-145 prostate
[35] = tested on: M14 melanoma
[36] = tested on: MALME-3M melanoma
[37] = tested on: KM12 colon
[38] = tested on: M19-MEL melanoma
[39] = tested on: SF-539 CNS
[40] = tested on: SN12K1 renal
[41] = tested on: PC-3 prostate
[42] = tested on: SR leukemia
[43] = tested on: MDA-MB-231 breast
[44] = tested on: NCI/ADR-RES ovarian
[45] = tested on: OVCAR-4 ovarian
[46] = tested on: COLO 205 colon
[47] = tested on: NCI-H460 lung
[48] = tested on: XF 498 CNS
[49] = tested on: KM20L2 colon
[50] = tested on: HCC-2998 colon
[51] = tested on: LOX IMVI melanoma
[52] = tested on: CCRF-CEM leukemia
[53] = tested on: HOP-62 NSCLC
[54] = tested on: P388/ADR leukemia
[55] = tested on: DLD-1 colon
[56] = tested on: RXF 393 renal
[57] = tested on: MDA-N
[58] = tested on: IGROV1 ovarian
[59] = tested on: NCI-H522 lung
[60] = tested on: TK-10 renal
[61] = tested on: HCT-15 colon
[62] = tested on: MCF7 breast
[63] = tested on: SF-295 CNS
[64] = tested on: SK-OV-3 ovarian
[65] = tested on: SK-MEL-28 melanoma
[66] = tested on: UACC-62 melanoma
[67] = tested on: U251 CNS
[68] = tested on: OVCAR-3 ovarian
[69] = tested on: OVCAR-8 ovarian

`CCCCCCCCCCS(=O)CC(CO)NC(=O)/C=C/c1c(C)[nH]c(=O)[nH]c1=O` (stereo not drawn) was tested, and the TGI [1] was 1.62 µM, the GI50 [2] was 23.4 µM and the TGI [2] was 7.98 µM and 62.1 µM. For the same compound, the GI50 [3] was 10.6 µM, the TGI [4] was 49.1 µM and the GI50 [5] was 10.3 µM. The TGI [6] was 28.5 µM, the GI50 [7] was 14.2 µM and the TGI [7] was 35.3 µM and 31.8 µM. The TGI [8] was 1.42 µM, the TGI [9] was 1.76 µM and the GI50 [10] was 15.7 µM. The TGI [11] was 16.2 µM, the GI50 [12] was 25.8 µM and the TGI [13] was 5.61 µM and 31.9 µM. For the same compound, the GI50 [14] was 26.4 µM, the GI50 [15] was 10.5 µM and the TGI [16] was 4.04 µM. For the same compound, the TGI [17] was 27 µM, the TGI [18] was 25.1 µM and the GI50 [19] was 17.2 µM. The TGI [19] was 8.68 µM and 33.8 µM, the TGI [20] was 2.64 µM and 25.7 µM and the GI50 [21] was 20.4 µM. For the same compound, the TGI [21] was 9.58 µM and 43.7 µM, the GI50 [22] was 6.27 µM and the TGI [22] was 22.7 µM and 19.9 µM. The TGI [23] was 4.21 µM, the TGI [24] was 39.6 µM and the TGI [25] was 2.01 µM. For the same compound, the GI50 [26] was 8.74 µM, the TGI [26] was 4.68 µM and 45.5 µM and the TGI [27] was 5.65 µM. The TGI [28] was 4.16 µM, the TGI [29] was 4.2 µM and 31.1 µM and the GI50 [30] was 28.3 µM. For the same compound, the GI50 [31] was 29.5 µM, the GI50 [32] was 18.2 µM and the TGI [32] was 4.52 µM and 40.4 µM. For the same compound, the GI50 [33] was 2.86 µM, the TGI [33] was 11.6 µM and 10.2 µM and the TGI [34] was > 100 µM. For the same compound, the TGI [35] was 24.4 µM, the GI50 [36] was 23.9 µM and the TGI [37] was 3.27 µM. For the same compound, the TGI [38] was 4.3 µM, the GI50 [39] was 14.9 µM and the TGI [40] was 3.9 µM. The TGI [41] was 7.79 µM, the TGI [42] was > 100 µM and the TGI [43] was 15.9 µM. For the same compound, the GI50 [44] was 17.2 µM, the TGI [44] was 37.9 µM and 34.2 µM and the TGI [45] was 1.88 µM. The GI50 [46] was 2.96 µM, the TGI [47] was 1.97 µM and 15.3 µM and the TGI [48] was 0.229 µM. The TGI [49] was 6 µM, the GI50 [50] was 3.26 µM and the TGI [50] was 1.9 µM and 17.5 µM. For the same compound, the GI50 [51] was 13.5 µM, the TGI [51] was 10.2 µM and 27.1 µM and the GI50 [52] was 4.08 µM. For the same compound, the TGI [52] was 2.41 µM and 13.2 µM, the GI50 [53] was 4.8 µM and the TGI [53] was 6.49 µM and 18.4 µM. The TGI [54] was 24.5 µM, the TGI [55] was 5.28 µM and the GI50 [56] was 10 µM. For the same compound, the TGI [57] was 57.5 µM, the GI50 [58] was 2.77 µM and the TGI [58] was 13.5 µM and 8.81 µM. The GI50 [59] was 10.6 µM, the TGI [60] was 4.02 µM and the GI50 [61] was 4.4 µM. For the same compound, the TGI [61] was 14.8 µM and 21.5 µM, the GI50 [62] was 23.4 µM and the GI50 [63] was 1.15 µM and 7.04 µM. For the same compound, the TGI [63] was 8.88 µM and 22.8 µM, the GI50 [64] was 11 µM and the TGI [64] was 12.7 µM and 32.1 µM. The GI50 [65] was 43.9 µM, the GI50 [66] was 9.8 µM and the TGI [66] was 4.08 µM and 24.5 µM. The GI50 [67] was 17.4 µM.

With `Cc1c2c(cc3c1[nH]c1ccccc13)C(c1ccc(Cl)cc1)=NCC2` the TGI [1] was 1.47 µM, the TGI [2] was 10.2 µM and the TGI [3] was 8.23 µM. For the same compound, the TGI [5] was 3.46 µM, the TGI [7] was 11.8 µM and the TGI [8] was 3.87 µM. For the same compound, the TGI [9] was 1.42 µM, the TGI [10] was 19 µM and the TGI [11] was 10.6 µM. For the same compound, the TGI [68] was 1.78 µM, the TGI [12] was 7.9 µM and the TGI [13] was 12.7 µM. For the same compound, the TGI [14] was 8.87 µM, the TGI [15] was 30.8 µM and the TGI [16] was 2.62 µM. It also gave a TGI [19] of 8.99 µM, a TGI [20] of 1.72 µM and a TGI [21] of 43.9 µM. For the same compound, the TGI [22] was 0.687 µM, the TGI [23] was 6.82 µM and the TGI [25] was 22 µM. For the same compound, the TGI [26] was 1.79 µM, the TGI [27] was 27.1 µM and the TGI [28] was 0.717 µM. It also gave a TGI [30] of 35.1 µM, a TGI [31] of 2.98 µM and a TGI [32] of 3.83 µM. For the same compound, the TGI [33] was 33.7 µM, the TGI [36] was 55.9 µM and the TGI [37] was 18.2 µM. It also gave a TGI [38] of 88.8 µM, a TGI [39] of 2.53 µM and a TGI [40] of 0.829 µM. It also gave a TGI [44] of 1.39 µM, a TGI [45] of 6.49 µM and a TGI [46] of 13.2 µM. For the same compound, the TGI [69] was 7.14 µM, the TGI [47] was 1.33 µM and the TGI [48] was 0.0949 µM. For the same compound, the TGI [49] was 0.809 µM, the TGI [50] was 10.7 µM and the TGI [51] was 11.4 µM. The TGI [52] was 8.54 µM, the TGI [53] was 11.2 µM and the TGI [54] was 18.4 µM. The TGI [55] was 19 µM, the TGI [56] was 2.45 µM and the TGI [58] was 24.1 µM. It also gave a TGI [59] of 4.45 µM, a TGI [61] of 9.89 µM and a TGI [62] of 7.32 µM. The TGI [63] was 0.718 µM, the TGI [64] was 9.23 µM and the TGI [65] was 61.2 µM. For the same compound, the TGI [66] was 17.6 µM and the TGI [67] was 5.7 µM.

With `O=C(N[C@@H](c1ccccc1)[C@@H](O)C(=O)OCc1ccc2c(c1)OCO2)c1ccccc1` the TGI [1] was > 100 µM, the TGI [2] was > 100 µM and the TGI [3] was > 100 µM. For the same compound, the TGI [5] was > 100 µM, the TGI [7] was > 100 µM and the TGI [8] was > 100 µM. For the same compound, the TGI [9] was > 100 µM, the TGI [10] was > 100 µM and the TGI [11] was > 100 µM. The TGI [68] was > 100 µM, the TGI [12] was > 100 µM and the TGI [13] was > 100 µM. For the same compound, the TGI [14] was > 100 µM, the TGI [15] was > 100 µM and the TGI [16] was > 100 µM. The TGI [19] was > 100 µM, the TGI [20] was > 100 µM and the TGI [21] was > 100 µM. For the same compound, the TGI [22] was > 100 µM, the TGI [23] was > 100 µM and the TGI [25] was > 100 µM. The TGI [26] was > 100 µM, the TGI [27] was > 100 µM and the TGI [28] was > 100 µM. For the same compound, the TGI [29] was > 100 µM, the TGI [30] was > 100 µM and the TGI [31] was > 100 µM. The TGI [32] was > 100 µM, the TGI [33] was > 31.6 µM and the TGI [36] was > 100 µM. The TGI [37] was > 100 µM, the TGI [38] was > 100 µM and the TGI [39] was > 100 µM. For the same compound, the TGI [40] was > 100 µM, the TGI [44] was > 100 µM and the TGI [45] was > 100 µM. The TGI [46] was > 100 µM, the TGI [69] was > 100 µM and the TGI [47] was > 100 µM. The TGI [48] was > 100 µM, the TGI [49] was > 100 µM and the TGI [50] was > 100 µM. The TGI [51] was > 100 µM, the TGI [52] was > 100 µM and the TGI [53] was > 100 µM. The TGI [54] was > 100 µM, the TGI [55] was > 100 µM and the TGI [56] was > 100 µM. For the same compound, the TGI [58] was > 100 µM, the TGI [59] was > 100 µM and the TGI [61] was > 100 µM. For the same compound, the TGI [62] was > 100 µM, the TGI [63] was > 100 µM and the TGI [64] was > 100 µM. For the same compound, the TGI [65] was > 100 µM, the TGI [66] was > 100 µM and the TGI [67] was > 100 µM.
